This note sets out measurements from patent US6437138B1, “3-pyridyloxymethyl heterocyclic ether compounds useful in controlling chemical synaptic transmission” (priority 1996, dated 2002).

SMILES strings stand for the structures. Counter-ions that a name gives are not always drawn.

The first series deals with neuronal nicotinic cholinergic channels in IMR-32 cells (Homo sapiens, UniProt P30926+P32297). Kind of series: 86Rb+ efflux in IMR-32 cells (activation, or inhibition of efflux elicited by (S)-nicotine). It is filed as cell-based. The conditions noted are these: 86Rb+ efflux; percent relative to the response elicited by 100 μM (S)-nicotine. From the text: For the purpose of directly evaluating the ability of test compounds to functionally activate or inhibit certain subtypes of neuronal nicotinic cholinergic channels, an assay to determine ^86Rb^+Efflux in IMR-32 cells was employed (Protocol B below).
B. Protocols for the Determination of Functional Effects of Cholinerzic Channel Receptor Ligands on Synaptic Transmission
Cells of the IMR-32 human neuroblastoma clonal cell line (ATCC, Rockville, Md.) were maintained in a log phase of growth according to established procedures (Lukas, 1993). Experimental cells were seeded at a density of 500,000 cells/ml into a 24-well tissue culture dish. Plated cells were allowed to proliferate for at least 48 hours before loading with 2 μCi/ml of ^86Rb^+ (35 Ci/mmol) overnight at 37° C. The ^86Rb^+ efflux assays were performed according to previously published protocols (Lukas, R. J., J. Pharmacol. Exp. Ther., 265: 294-302, 1993) except serum-free Dulbecco's Modified Eagle's Medium was used during the ^86Rb^+ loading, rinsing, and agonist-induced efflux steps.
EC50 data and maximal responses (reported as percent relative to the response elicited by 100 μM (S)-nicotine) are shown for selected compounds of the invention. The inhibition data (given for a larger number of compounds) reflect inhibition of the efflux elicited by 100 μM (S)-nicotine for either a single dose (% inhibition at 1 μM or at 10 μM) or over a range of doses (IC50 of inhibition). […] This finding is in agreement with the results of others who have linked dopamine release, which is dependent upon the ion flux in synaptic transmission, to binding at nicotinic receptors (cf., for example, Lippiello and Caldwell, U.S. Pat. No. 5,242,935, issued Sep. 7, 1993; Caldwell and Lippiello, U.S. Pat. No. 5,248,690, issued Sep. 28, 1993; and Wonnacott et al., Prog. Brain Res., 79: 157-163 (1989)).
Regarding `Cl.Cl.c1ccc(-c2cncc(OC[C@@H]3CCN3)c2)cc1` [Example 56, 5-Phenyl-3-(2-(S)-azetidinylmethoxy)pyridine Dihydrochloride], the IMR-32 maximal response was 20%.

Still in this series, the particulars now being: IMR-32; 86Rb+ efflux; percent relative to the response elicited by 100 μM (S)-nicotine; read-out: IMR-32 maximal response.
For the compound `Clc1ncc(OC[C@@H]2CCN2)cc1-c1ccccc1` [Example 67, 5-Phenyl-6-chloro-3-(2-(S)-azetidinylmethoxy)pyridine Hidrochloride], the Emax turned out to be 90%.

`CN1CCC[C@@H]1COc1cnc(Cl)c(-c2ccccc2)c1` [Example 69, 5-Phenyl-6-chloro-3-(1-methyl-2-(R)-pyrrolidinylmethoxy)pyridine Dihydrochloride]: the Emax came to 6%.

Turning to `Clc1ncc(OC[C@H]2CCCN2)cc1C=Cc1ccncc1` [Example 81, 5-(2-(4-Pyridinyl)ethenyl)-6-chloro-3-(2-(R)-pyrrolidinylmethoxy)pyridine Dihydrochloride], the Emax stood at 32%.

In the case of `C(=C\c1cncc(OC[C@H]2CCCN2)c1)/c1ccncc1` [Example 86, 5-(2-(4-Pyridinyl)ethenyl)-3-(2-(R)-pyrroylidinylmethoxy)pyridine Trihydrochloride], the Emax came out at 44%.

With `Clc1ncc(OC[C@@H]2CCN2)cc1C=Cc1ccncc1` [Example 89, 5-(2-(4-Pyridinyl)ethenyl)-6-chloro-3-(2-(S)-azetidnylmethoxy)pyridine Citric Acid Salt], the Emax came out at 72%.

Regarding `O=C(NCc1cc(OC[C@@H]2CCN2)cnc1Cl)c1ccccc1` [Example 92, 3-(2-(S)-Azetidinylmethoxy)-5-(N-benzoylamino)methyl-6-chloropyridine Hydrochloride], the Emax stood at 25%.

The same series, now with this note: IMR-32; inhibition of the efflux elicited by 100 μM (S)-nicotine; single dose 1 μM.
In turn, `CCCCC#Cc1cncc(OC[C@@H]2CCCN2C)c1` [Example 4, 5-Hexynyl-3-(1-methyl-2-(S)-pyrrolidinylmethoxy)pyridine Dihydrochloride] had an inhibition at 1 µM of 55%.

Regarding `CN1CCC[C@H]1COc1cncc(C=Cc2ccncc2)c1` [Example 13, 5-(2-(4-Pyridinyl)ethenylyl)-3-((1-methyl-2-(S)-pyrrolidinylmethoxy)pyridine Triihydrochloride], the inhibition at 1 µM is 50%.

Consider `CN1CCC[C@H]1COc1cncc(C#CCCCC#N)c1` [Example 14, (5-(5-Cyano-1-pentynyl-3-(1-methyl-2-(S)-pyrrolidinylmethoxy)pyridine Dihydrochloride], for which the inhibition at 1 µM amounted to 50%.

In turn, `COC(=O)CCc1cncc(OC[C@@H]2CCCN2C)c1` [Example 15, 5-(2-(Methoxycarbonyl)ethyl)-3-(1-methyl-2-(S)-pyrrolidinylmethoxy)pyridine Dihydrochloride] returned an inhibition at 1 µM of 16%.

In turn, `COC(=O)C=Cc1cncc(OC[C@@H]2CCCN2C)c1` [Example 16, 5-(2-(Methoxycarbonyl)ethenyl-3-(1-methyl-2-(S)-pyrrolidinylmethoxy)pyridine Dihydrochloride] displayed an inhibition at 1 µM of 6%.

As to `CN1CCC[C@H]1COc1cncc(C#CCCCc2ccccc2)c1` [Example 17, 5-(5-Phenyl-1-pentynyl)-3-(1-methyl-2-(S)-pyrrolidinylmethoxy)pyridine Dihydrochloride], the inhibition at 1 µM worked out at 32%.

Compound `CCCC(=O)C=Cc1cncc(OC[C@@H]2CCCN2C)c1` [Example 22, 5-(3-oxo-1-Hexenyl)-3-(1-methyl-2-(S)-pyrrolidinylmethoxy)pyridinine Dihydrochloride] had an inhibition at 1 µM of 44%.

Regarding `CN1CCC[C@H]1COc1cncc(C#CCCCCO)c1` [Example 28, 5-(6-Hydroxy-1-hexynyl)-3-(1-methyl-2-(S)-pyrrolidipylmethoxy)pyridine Dihydrochloride], the inhibition at 1 µM came to 20%.

`CN1CCC[C@H]1COc1cncc(C#CC(C)(C)C)c1` [Example 47, 5-(3,3-Dimethylbutynyl)-3-(1-methyl-2-(S)-pyrrolidinylmethoxy)pyridine Dihydrochloride]: 1 µM produced 66% inhibition.

The compound `CCCCCCC#Cc1cncc(OC[C@@H]2CCCN2C)c1` [Example 49, 5-Octynyl-3-(1-methyl-2-(S)-pyrrolidinylmethoxy)pyridine Dihydrochloride] yielded an inhibition at 1 µM of 33%.

The same series, now with this note: IMR-32; inhibition of the efflux elicited by 100 μM (S)-nicotine; single dose 10 μM.
In the case of `COC(=O)CCc1cncc(OC[C@@H]2CCCN2C)c1` [Example 15, 5-(2-(Methoxycarbonyl)ethyl)-3-(1-methyl-2-(S)-pyrrolidinylmethoxy)pyridine Dihydrochloride], the inhibition at 10 µM came to 83%.

Compound `CN1CCC[C@H]1COc1cncc(C#CCCCc2ccccc2)c1` [Example 17, 5-(5-Phenyl-1-pentynyl)-3-(1-methyl-2-(S)-pyrrolidinylmethoxy)pyridine Dihydrochloride] registered an inhibition at 10 µM of 100%.

Staying with this series, now noted: inhibition of the efflux elicited by 100 μM (S)-nicotine; single dose 1 μM.
As for `Cl.Cl.c1ccc(-c2cncc(OC[C@@H]3CCN3)c2)cc1` [Example 56, 5-Phenyl-3-(2-(S)-azetidinylmethoxy)pyridine Dihydrochloride], the “% Inhibition @ 1 μM” value was determined as 16%.

Test system in a further series: not given
Assay: not given
Details: not given
The compound `C=CCc1cc(OC[C@@H]2CCCN2C)cnc1Cl.Cl` [Example 184, 5-Allyl-6-chloro-3-(1-methyl-2-(S)-pyrrolidinylmethoxy)pyridine Hydrochloride] registered a melting point of 150 to 152 °C.

On to `C=CCc1cc(OC[C@H]2CCCN2)cnc1Cl.Cl` [Example 185, 5-Allyl-6-chloro-3-(2-(R)-pyrrolidinylmethoxy)pyridine Hydrochloride], for which the melting point is 90 to 92 °C.

For `Cl.Clc1ncc(OC[C@H]2CCN2)cc1-c1ccccc1` [Example 186, 3-(2-(R)-Azetidinylmethoxy)-6-chloro-5-phenylpyridine Hydrochloride], the melting point was in the range of 143 to 145 °C.

Consider `C=Cc1ncc(OC[C@@H]2CCCN2)cc1C.Cl` [Example 187, 6-Ethenyl-5-methyl-3-(2-(S)-pyrrolidinylmethoxy)pyridine Hydrochloride], for which the melting point is 168 to 170 °C.

`C=Cc1ncc(OC[C@@H]2CCCN2C)cc1C.Cl` [Example 188, 6-Ethenyl-5-methyl-3-(1-methyl-2-(S)-pyrrolidinylmethoxy)pyridine Hydrochloride]: the melting point was 50 °C (dec.).

`CN1CC[C@@H]1COc1cnc(Cl)c(-c2ccccc2)c1.Cl` [Example 189, 6-Chloro-3-(1-methyl-2-(R)-azetidinylmethoxy)-5-phenylpyridine Hydrochloride] displayed a melting point of 173 to 175 °C.

Compound `C#Cc1cc(OC[C@H]2CCN2)cnc1Cl.Cl` [Example 190, 3-(2-(R)-Azetidinylmethoxy)-6-chloro-5-ethynylpyridine Hydrochloride] returned a melting point of 155 to 157 °C.

In turn, `C=Cc1cc(OC[C@@H]2CCCN2C)cnc1Cl.Cl` [Example 192, 6-Chloro-5-ethenyl-3-(1-methyl-2-(S)-pyrrolidinylmethoxy)pyridine Hydrochloride] had a melting point of 182 to 184 °C.

In turn, `COCCOc1cncc(OC[C@@H]2CCCN2)c1.Cl.Cl` [Example 197, 5-Methoxyethoxy-3-(2-(S)-pyrrolidinylmethoxy)pyridine Dihydrochloride] displayed a melting point of 182 to 184 °C.

Regarding `Cl.Cl.c1ccc(COc2cncc(OC[C@@H]3CCN3)c2)cc1` [Example 199, 3-(2-(S)-Azetidinylmethoxy)-5-benzyloxypyridine Dihydrochloride], the melting point was in the range of 172 to 174 °C.

`CN1CC[C@H]1COc1cncc(OCc2ccccc2)c1.Cl` [Example 200, 5-Benzyloxy-3-(1-methyl-2-(S)-azetidinylmethoxy)pyridine Hydrochloride] returned a melting point of 132 to 134 °C.

`C=Cc1ccc(OC[C@@H]2CCN2)cn1.Cl.Cl` [Example 201, 3-(2-(S)-Azetidinylmethoxy)-6-ethenylpyridine Dihydrochloride] came in with a melting point of 102 to 104 °C.

In the case of `C=Cc1ccc(OC[C@@H]2CCN2C)cn1.Cl.Cl` [Example 202, 6-Ethenyl-3-(1-methyl-2-(S)-azetidinylmethoxy)pyridine Dihydrochloride], the melting point was 105 to 107 °C.
